Drawing on ChEMBL document CHEMBL6083273, “Targeting Periplakin of Novel Benzenesulfonamides as Highly Selective Agonists for the Treatment of Vitiligo” (2024), this text covers Activity and Emax for 26 molecules.

The species entered for assay [1] is Danio rerio. In words: Induction of melanogenesis in zebrafish treated for 24 hrs by absorbance based assay (reference value: 98.2 to 100.3 %). In kind it is functional.
For assay [2], the species on record is Danio rerio. In words: Effect on tryptophan metabolism in zebrafish embryo assessed as ILA metabolite level at 10 uM by LC/MS analysis. In kind it is functional.
The species named for assay [3] is Danio rerio. In words: Effect on tryptophan metabolism in zebrafish embryo assessed as 3-HAA metabolite level at 10 uM by LC/MS analysis. In kind it is functional.
Assay [4] is filed under the species Danio rerio. Nature of the assay: Effect on tryptophan metabolism in zebrafish embryo assessed as AA metabolite level at 10 uM by LC/MS analysis. In kind it is functional.
The species named for assay [5] is Danio rerio. Nature of the assay: Effect on tryptophan metabolism in zebrafish embryo assessed as IAA metabolite level at 10 uM by LC/MS analysis. Format: functional.
The species named for assay [6] is Danio rerio. Nature of the assay: Effect on tryptophan metabolism in zebrafish embryo assessed as NAS metabolite level at 10 uM by LC/MS analysis. In kind it is functional.
The species named for assay [7] is Danio rerio. In words: Effect on tryptophan metabolism in zebrafish embryo assessed as IA metabolite level at 10 uM by LC/MS analysis. In kind it is functional.
The species entered for assay [8] is Danio rerio. Nature of the assay: Effect on tryptophan metabolism in zebrafish embryo assessed as IPA metabolite level at 10 uM by LC/MS analysis. Format: functional.
The species named for assay [9] is Danio rerio. In words: Effect on tryptophan metabolism in zebrafish embryo assessed as skatole metabolite level at 10 uM by LC/MS analysis. Format: functional.
The species named for assay [10] is Danio rerio. In words: Effect on tryptophan metabolism in zebrafish embryo assessed as indole metabolite level at 10 uM by LC/MS analysis. In kind it is functional.
For assay [11], the species on record is Danio rerio. In words: Effect on tryptophan metabolism in zebrafish embryo assessed as Trp metabolite level at 10 uM by LC/MS analysis. In kind it is functional.
For assay [12], the species on record is Danio rerio. Nature of the assay: Effect on tryptophan metabolism in zebrafish embryo assessed as IAN metabolite level at 10 uM by LC/MS analysis. In kind it is functional.
The species named for assay [13] is Danio rerio. Nature of the assay: Effect on tryptophan metabolism in zebrafish embryo assessed as LE metabolite level at 10 uM by LC/MS analysis. In kind it is functional.
Assay [14] is filed under the species Danio rerio. Nature of the assay: Effect on tryptophan metabolism in zebrafish embryo assessed as ICA metabolite level at 10 uM by LC/MS analysis. In kind it is functional.
The species entered for assay [15] is Danio rerio. In words: Effect on tryptophan metabolism in zebrafish embryo assessed as Xa metabolite level at 10 uM by LC/MS analysis. Format: functional.
Assay [16] is filed under the species Danio rerio. Nature of the assay: Effect on tryptophan metabolism in zebrafish embryo assessed as 5-HTP metabolite level at 10 uM by LC/MS analysis. In kind it is functional.
The species entered for assay [17] is Danio rerio. Nature of the assay: Effect on tryptophan metabolism in zebrafish embryo assessed as NA metabolite level at 10 uM by LC/MS analysis. Format: functional.
For assay [18], the species on record is Danio rerio. In words: Effect on tryptophan metabolism in zebrafish embryo assessed as 5-HIAA metabolite level at 10 uM by LC/MS analysis. In kind it is functional.
For assay [19], the species on record is Danio rerio. In words: Effect on tryptophan metabolism in zebrafish embryo assessed as 3-HK metabolite level at 10 uM by LC/MS analysis. Format: functional.
The species named for assay [20] is Danio rerio. Nature of the assay: Effect on tryptophan metabolism in zebrafish embryo assessed as KYNA metabolite level at 10 uM by LC/MS analysis. Format: functional.
The species named for assay [21] is Danio rerio. Nature of the assay: Induction of melanogenesis in zebrafish at 40 uM treated for 24 hrs by absorbance based assay relative to control. In kind it is functional.
Assay [22] is filed under the species Danio rerio. In words: Induction of melanogenesis in zebrafish treated for 24 hrs by absorbance based assay. Format: functional, organism-based.
Assay [23] is filed under the species Danio rerio. In words: Induction of melanogenesis in zebrafish at 0.1 nM treated for 24 hrs by absorbance based assay. Format: functional, organism-based.
The species entered for assay [24] is Danio rerio. Nature of the assay: Induction of melanogenesis in zebrafish at 40 uM treated for 24 hrs by absorbance based assay. Format: functional, organism-based.

Molecules are shown by their SMILES. Active and inactive are the calls of the source. No cut-off for these calls is given here.

On to `Cc1cc(-c2ccc([C@H](C)Nc3nccc(NS(=O)(=O)c4cc(F)cc(F)c4)n3)cc2)ccc1F`, for which the Activity in assay [1] was 81.815%.
Consider `Cc1cccc(S(=O)(=O)Nc2ccnc(N[C@@H](C)c3ccc(-c4ccc(F)c(C)c4)cc3)n2)c1`, for which the Activity in assay [1] came out at 46.585%.
Same read-out and setting: as for `Cc1cc(-c2ccc([C@H](C)Nc3nccc(NS(=O)(=O)Cc4ccccc4)n3)cc2)ccc1F`, the figure is 132.22%.
The same measure, in the same setting: as for `C[C@H](Nc1nccc(NS(=O)(=O)c2cccc([N+](=O)[O-])c2)n1)c1ccc(-c2cccs2)cc1`, the figure is 94.688%.
The molecule `C[C@H](Nc1nccc(NS(=O)(=O)c2cccc([N+](=O)[O-])c2)n1)c1ccc(C2CC2)cc1` gave an Activity in [1] of 149.56%.
Take `Cc1cc(-c2ccc([C@H](C)Nc3nccc(NS(=O)(=O)c4ccc(F)cc4)n3)cc2)ccc1F`: the Activity was determined as 135.12% in assay [1]; 108.22 nmol/kg in assay [2]; 1.15 nmol/kg in [3]; 13.62 nmol/kg in assay [4]; 0.85 nmol/kg in [5]; 0.09 nmol/kg in [6]. Moreover, the Activity amounted to 21.42 nmol/kg in [7]; 22.24 nmol/kg in [8]; 506.87 nmol/kg in assay [9]; 754.01 nmol/kg in [10]; 234150.9 nmol/kg in assay [11]; 16.03 nmol/kg in assay [12]. The Activity in assay [13] was 53.82 nmol/kg; in [14] it was 25.11 nmol/kg; in [15], 468.35 nmol/kg; in assay [16], 42.55 nmol/kg; in assay [17], 2175.78 nmol/kg; in [18] it was 105.04 nmol/kg. Moreover, the Activity in assay [19] came out at 109.36 nmol/kg; in assay [20], 1.12 nmol/kg.
As for `O=[N+]([O-])c1cccc(S(=O)(=O)Nc2ccnc(NCc3ccc(C(F)(F)F)cc3)n2)c1`, the Activity in [1] was determined as 93.387%.
`Cc1ccc(CNc2nccc(NS(=O)(=O)c3cccc([N+](=O)[O-])c3)n2)cc1`: in assay [1], the Activity turned out to be 148.37%.
`COc1ccc(CNc2nccc(NS(=O)(=O)c3cccc([N+](=O)[O-])c3)n2)cc1` had an Activity in assay [1] of 132.54%.
Molecule `Cc1ccc(S(=O)(=O)Nc2ccnc(N[C@@H](C)c3ccc(-c4ccc(F)c(C)c4)cc3)n2)cc1` displayed an Activity in assay [1] of 135.69%.
`C[C@H](Nc1nccc(NS(=O)(=O)c2cccc([N+](=O)[O-])c2)n1)c1ccc(-c2ccc(F)cc2)cc1`: the Activity in assay [1] was determined as 146.53%.
`C[C@H](Nc1nccc(NS(=O)(=O)c2cccc([N+](=O)[O-])c2)n1)c1ccccc1` displayed an Activity in [1] of 99.105%.
Still for that read-out and setting: as for `Cc1cc(-c2ccc([C@H](C)Nc3nccc(NS(=O)(=O)c4ccccc4C)n3)cc2)ccc1F`, the figure is 63.17%; as for `C[C@H](Nc1nccc(NS(=O)(=O)c2cccc([N+](=O)[O-])c2)n1)c1ccc(-c2ccc3ccccc3c2)cc1`, 77.723%.
For `Cc1cc(-c2ccc([C@H](C)Nc3nccc(NS(=O)(=O)c4ccccc4)n3)cc2)ccc1F`, in assay [21], the Emax (as a rule, the size of the effect at its maximum, as opposed to the concentration needed) at 40 µM is 139%. The Activity result in assay [22] was “Dose-dependent-effect”.
As to `C[C@H](Nc1nccc(NS(=O)(=O)c2cccc([N+](=O)[O-])c2)n1)c1ccc(-c2ccccc2)cc1`, in [1], the Activity was found to be 106.72%.
`Cc1cc(-c2ccc([C@H](C)Nc3nccc(NS(=O)(=O)c4ccc5ccccc5c4)n3)cc2)ccc1F` registered an Activity in assay [1] of 89.349%.
On the same count and under the same terms, the figure for `O=[N+]([O-])c1cccc(S(=O)(=O)Nc2ccnc(NCc3ccccc3)n2)c1` is 107.18%; for `Cc1cc(-c2ccc([C@H](C)Nc3nccc(NS(=O)(=O)c4cc(C(F)(F)F)cc(C(F)(F)F)c4)n3)cc2)ccc1F` it is 114.22%; for `COc1ccc(S(=O)(=O)Nc2ccnc(N[C@@H](C)c3ccc(-c4ccc(F)c(C)c4)cc3)n2)cc1` it is 67.56%.
As to `O=[N+]([O-])c1cccc(S(=O)(=O)Nc2ccnc(Nc3ccccc3)n2)c1`, the Activity in assay [1] is 155.77%.
Take `C=C1/C(=C\C=C2/CCC[C@]3(C)[C@@H]([C@H](C)/C=C/[C@@H](O)C4CC4)CC[C@@H]23)C[C@@H](O)C[C@@H]1O`: the result in assay [23] was Active.
In the case of `C[C@H](Nc1nccc(NS(=O)(=O)c2cccc([N+](=O)[O-])c2)n1)c1ccc(-c2ccc(F)c(COCCCNC(=O)CCCC[C@@H]3SC[C@@H]4NC(=O)N[C@@H]43)c2)cc1`, the outcome in assay [24] was Active.
On to `Cc1cc(-c2ccc([C@H](C)Nc3nccc(NS(=O)(=O)c4cccc(C(F)(F)F)c4)n3)cc2)ccc1F`, for which the Activity in assay [1] amounted to 58.78%.
Still for that read-out and setting: the figure for `C[C@H](Nc1nccc(NS(=O)(=O)c2cccc([N+](=O)[O-])c2)n1)c1ccc([N+](=O)[O-])cc1` is 129.75%.
`O=[N+]([O-])c1cccc(S(=O)(=O)Nc2ccnc(NCc3ccc(F)cc3)n2)c1` displayed an Activity in assay [1] of 115.42%.
